# Read-outs that look alike come from different tables or passages of the source.
# Experiments:
# ER-BC (Bcoa0725) = conditions: NADH, anaerobic
# ER-MT = target: T1, ER-MT (Neomoorella thermoacetica, UniProt O52935); test: whole-cell biotransformation, LC-MS; assay type: cell-based; conditions: 0.7 mM substrate; E. coli expressing ER
# T1 sequence (O52935 1-667): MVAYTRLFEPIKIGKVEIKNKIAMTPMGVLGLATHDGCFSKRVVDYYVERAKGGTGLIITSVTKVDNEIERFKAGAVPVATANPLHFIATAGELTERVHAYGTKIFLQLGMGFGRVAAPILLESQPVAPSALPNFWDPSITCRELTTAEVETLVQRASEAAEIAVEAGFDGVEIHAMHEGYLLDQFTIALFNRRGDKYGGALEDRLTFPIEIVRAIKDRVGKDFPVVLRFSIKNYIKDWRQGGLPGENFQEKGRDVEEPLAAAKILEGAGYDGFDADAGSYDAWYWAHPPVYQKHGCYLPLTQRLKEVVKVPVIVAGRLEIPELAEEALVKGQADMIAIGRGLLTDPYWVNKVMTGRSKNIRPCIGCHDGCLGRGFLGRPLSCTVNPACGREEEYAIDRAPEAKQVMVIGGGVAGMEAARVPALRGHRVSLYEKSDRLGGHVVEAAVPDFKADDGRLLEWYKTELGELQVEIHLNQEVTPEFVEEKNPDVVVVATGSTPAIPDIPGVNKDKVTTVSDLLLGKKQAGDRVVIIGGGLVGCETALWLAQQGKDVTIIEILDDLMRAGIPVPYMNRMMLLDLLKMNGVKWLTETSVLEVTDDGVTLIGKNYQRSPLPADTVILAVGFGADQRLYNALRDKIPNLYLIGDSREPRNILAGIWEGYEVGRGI
smiles,measurement,setting,value
"O=C(O)C=CCCC(=O)O (mixture of isomers) [compound 5, 2-hexenedioic acid]",Km,"ER-BC (Bcoa0725); 14% isopropanol, sigmoidal kinetics",18.9 mM
"O=C(O)/C=C/c1ccccc1 [compound 4, trans-cinnamic acid]",Km,ER-BC (Bcoa0725); substrate inhibition,0.68 mM
"O=C(O)/C=C/C=C/C(=O)O [trans,trans-muconic acid]","whole-cell biotransformation, LC-MS",ER-MT,"the ER-BC, ER-CA and ER-MT strains hydrogenated both isomers to adipic acid"

# From publication PMC5460604 (Chemical Science, 2016)
